This note sets out measurements from US20230192660A1 (priority 2020, published 2023).

For this assay, the target named is SARS-CoV-2 Mpro C145A mutant (Severe acute respiratory syndrome coronavirus 2, UniProt P0DTD1, C3408A). In kind it is binding.

For `CC1(C)[C@@H]2[C@@H](C(=O)N[C@@H](C[C@@H]3CCNC3=O)C(=O)C(N)=O)N(C(=O)CCc3ccccc3)C[C@@H]21` [ML102], the “ΔTm Mpro C145A” value is 0 °C. The result for `CC1(C)[C@@H]2[C@@H](C(=O)NC(C[C@@H]3CCNC3=O)C(=O)C(N)=O)N(C(=O)CNc3c(F)cc(F)cc3F)C[C@@H]21` (stereo partly shown) [ML104] reads 0 °C. The result for `CNC(=O)C(=O)[C@H](C[C@@H]1CCNC1=O)NC(=O)[C@@H]1[C@@H]2[C@H](CN1C(=O)CNc1c(F)cc(F)cc1F)C2(C)C` [ML104m] reads 0 °C; that for `CNC(=O)C(=O)[C@H](C[C@@H]1CCNC1=O)NC(=O)[C@@H]1[C@@H]2[C@H](CN1C(=O)CCc1ccccc1)C2(C)C` [ML102m], 0 °C; that for `COc1cccc2[nH]c(C(=O)N3C[C@H]4[C@@H]([C@H]3C(=O)N[C@@H](C[C@@H]3CCNC3=O)C(=O)C(N)=O)C4(C)C)cc12` [ML105], 0 °C. The result for `CNC(=O)C(=O)[C@H](C[C@@H]1CCNC1=O)NC(=O)[C@@H]1[C@@H]2[C@H](CN1C(=O)[C@@H](NC(=O)C13CC(C1)C3)C(C)(C)C)C2(C)C` [ML1002m] reads 0.1 °C; that for `CC(C)(C)[C@H](NC(=O)C12CC(C1)C2)C(=O)N1C[C@H]2[C@@H]([C@H]1C(=O)N[C@@H](C[C@@H]1CCNC1=O)C(=O)C(N)=O)C2(C)C` [ML1002], 0.1 °C.
